Reference: patent US9884067B2, “Androgen receptor down-regulating agents and uses thereof” (UNIVERSITY OF MARYLAND EASTERN SHORE, priority 2013, dated 2018)
Values joined by “and” are separate entries in the source; they are usually repeats but may differ in a detail not shown here. Equal values may be shown once. Read-outs that look alike come from different tables or passages of the source. One block for each compound: values may come before it.

Legend:
human CYP17A1 (CYP171dH) = target: T1, human CYP17A1 (CYP171dH) (Homo sapiens, UniProt P05093); test: CYP17 inhibition studies; assay type: biochemical
T1 sequence (P05093 with tags, fused parts or gaps limits assumed): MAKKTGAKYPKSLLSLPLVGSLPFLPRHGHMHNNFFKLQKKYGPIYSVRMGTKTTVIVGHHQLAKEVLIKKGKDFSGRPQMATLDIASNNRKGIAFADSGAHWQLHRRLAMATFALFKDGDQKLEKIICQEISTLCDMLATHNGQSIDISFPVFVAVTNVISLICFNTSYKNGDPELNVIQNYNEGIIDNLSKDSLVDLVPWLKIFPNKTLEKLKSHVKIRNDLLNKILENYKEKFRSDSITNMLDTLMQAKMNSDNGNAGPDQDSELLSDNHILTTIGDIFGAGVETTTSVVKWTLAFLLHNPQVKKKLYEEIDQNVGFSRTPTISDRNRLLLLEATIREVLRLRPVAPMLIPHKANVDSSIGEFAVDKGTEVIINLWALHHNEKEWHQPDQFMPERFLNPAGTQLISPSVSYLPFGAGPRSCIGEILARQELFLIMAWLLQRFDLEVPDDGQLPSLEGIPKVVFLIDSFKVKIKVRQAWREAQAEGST
Protocol: Some compounds were evaluated for their ability to inhibit CYP17 enzyme. A truncated version of human CYP17A1 (CYP171dH) was expressed in E. coli and then purified to homogeneity.

LNCaP cells = test: MTT colorimetric anti-proliferative assay; assay type: cell-based, human
Protocol: The cells were treated for 7 days with renewal of test compound and media on day 4. On the 7th day, medium was renewed and MTT (3-(4,5-dimethylthiazol-2-yl)-2,5-diphenyl-2H-tetrazolium bromide) (Sigma, St Louis, Mo., USA) solution (0.5 mg MTT per ml of media) was added to the medium such that the ratio of MTT: medium was 1:10. The cells were incubated with MTT for 2 hours. The medium was then aspirated and DMSO was added to solubilize the violet MTT-formazan product.

full-length AR = test: Down-regulation of full-length AR, western blot in CWR22rv1 cells; assay type: cell-based, human; conditions: CWR22rv1 prostate cancer cell line
Protocol: (§1) Due to the potential implication of AR splice variants lacking the ligand-binding domain (truncated AR) in driving the progression of CRPC, the effects of the compounds on the down-regulation of AR-3 (also called AR-V7) were determined.
(§2) For the Western blot analyses, LNCaP or CWR22v1 prostate cancer cells were cultured. The cells were then treated with the indicated compounds and whole cell lysates were prepared using RIPA lysis buffer (Sigma Aldrich) and protease and phosphatase inhibitors (Sigma Aldrich). All of the antibodies were ordered from cell signaling technology. Protein content was determined using the Bradford Assay (Bio-Rad, Hercules, Calif., USA). Protein was subjected to SDS-PAGE and transferred onto nitrocellulosemembrane. Membranes were then incubated with secondary antibody (cell signaling technology) at room temperature for 1 hour. Bands were visualized by chemiluminescence (Millipore). Protein expression was normalized to β-actin and densitometry was carried out using Image J or ImageQuant 5.0 (Molecular Dynamics, Sunnyvale, Calif., USA).

AR-3 (also called AR-V7) = target: T2, AR-3 (also called AR-V7) (Homo sapiens, UniProt P10275); test: Down-regulation of truncated AR splice variant, western blot in CWR22rv1 cells; assay type: cell-based; conditions: CWR22rv1 prostate cancer cell line
T2 construct: endogenous in cells; host or cells: CWR22Rv1
T2 sequence (P10275 1-644 isoform P10275-3): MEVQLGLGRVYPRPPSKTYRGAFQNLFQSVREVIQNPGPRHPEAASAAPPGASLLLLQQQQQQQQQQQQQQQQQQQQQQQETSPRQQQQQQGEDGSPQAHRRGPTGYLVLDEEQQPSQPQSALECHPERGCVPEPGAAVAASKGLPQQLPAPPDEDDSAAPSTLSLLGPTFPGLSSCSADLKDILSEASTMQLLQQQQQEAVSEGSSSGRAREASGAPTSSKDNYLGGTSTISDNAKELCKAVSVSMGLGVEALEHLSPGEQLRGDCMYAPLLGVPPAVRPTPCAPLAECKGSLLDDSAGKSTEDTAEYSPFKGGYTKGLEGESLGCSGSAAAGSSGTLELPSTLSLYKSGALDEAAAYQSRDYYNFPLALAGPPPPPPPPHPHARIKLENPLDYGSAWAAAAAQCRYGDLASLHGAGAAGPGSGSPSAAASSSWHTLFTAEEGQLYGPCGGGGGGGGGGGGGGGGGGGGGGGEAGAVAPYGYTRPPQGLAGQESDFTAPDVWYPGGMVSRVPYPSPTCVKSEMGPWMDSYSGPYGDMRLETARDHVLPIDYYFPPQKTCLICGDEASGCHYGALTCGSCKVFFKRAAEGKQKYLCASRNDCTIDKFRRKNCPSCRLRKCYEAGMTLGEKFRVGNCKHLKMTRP
Protocol: as §1, §2

[1] = Solubility in ethanol or DMSO; assay type: physicochemical
AR = target: T3, AR (Homo sapiens, UniProt P10275, T878A); test: AR down-regulation, western blot analysis in LNCaP cells; assay type: cell-based; conditions: 24 h, western blot
T3 construct: host or cells: LNCaP
T3 sequence (P10275 1-920 T878A): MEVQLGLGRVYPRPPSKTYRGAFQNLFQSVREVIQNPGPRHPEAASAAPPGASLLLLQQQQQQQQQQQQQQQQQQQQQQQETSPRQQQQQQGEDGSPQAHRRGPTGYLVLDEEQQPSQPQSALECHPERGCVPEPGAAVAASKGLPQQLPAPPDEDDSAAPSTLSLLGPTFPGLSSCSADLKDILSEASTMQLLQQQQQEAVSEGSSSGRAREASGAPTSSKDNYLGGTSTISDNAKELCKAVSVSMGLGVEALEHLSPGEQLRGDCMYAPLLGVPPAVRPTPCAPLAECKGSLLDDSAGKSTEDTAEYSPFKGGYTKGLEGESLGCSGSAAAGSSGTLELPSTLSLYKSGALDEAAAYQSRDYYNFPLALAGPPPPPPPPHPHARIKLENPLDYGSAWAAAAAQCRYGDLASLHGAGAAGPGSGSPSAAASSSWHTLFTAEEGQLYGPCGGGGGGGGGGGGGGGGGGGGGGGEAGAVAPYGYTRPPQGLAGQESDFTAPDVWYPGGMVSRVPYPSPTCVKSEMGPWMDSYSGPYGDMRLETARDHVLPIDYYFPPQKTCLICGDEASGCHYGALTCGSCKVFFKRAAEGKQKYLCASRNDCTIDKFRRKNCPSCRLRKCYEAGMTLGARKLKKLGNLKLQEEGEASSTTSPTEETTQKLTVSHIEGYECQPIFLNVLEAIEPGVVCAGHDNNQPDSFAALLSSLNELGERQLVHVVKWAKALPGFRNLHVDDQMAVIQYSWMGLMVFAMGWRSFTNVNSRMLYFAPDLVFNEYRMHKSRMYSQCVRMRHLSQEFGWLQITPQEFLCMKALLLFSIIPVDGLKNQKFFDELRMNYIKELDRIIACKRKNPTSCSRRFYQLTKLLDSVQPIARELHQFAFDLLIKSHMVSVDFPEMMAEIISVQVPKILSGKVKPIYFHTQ
Protocol: For the Western blot analyses, LNCaP or CWR22v1 prostate cancer cells were cultured. The cells were then treated with the indicated compounds and whole cell lysates were prepared using RIPA lysis buffer (Sigma Aldrich) and protease and phosphatase inhibitors (Sigma Aldrich). All of the antibodies were ordered from cell signaling technology. Protein content was determined using the Bradford Assay (Bio-Rad, Hercules, Calif., USA). Protein was subjected to SDS-PAGE and transferred onto nitrocellulosemembrane. Membranes were then incubated with secondary antibody (cell signaling technology) at room temperature for 1 hour. Bands were visualized by chemiluminescence (Millipore). Protein expression was normalized to β-actin and densitometry was carried out using Image J or ImageQuant 5.0 (Molecular Dynamics, Sunnyvale, Calif., USA). CWR22Rv1 cells were used for endogenous levels of splice variant AR-3. Protein levels were analyzed with respective antibodies; full length AR and β-actin antibodies were purchased from cell signaling, antibody specific for splice variant AR-3 was obtained from Dr. Yun Qiu, University of Maryland, School of Medicine, Baltimore.

AR in LNCaP cells = target: T4, AR in LNCaP cells (Homo sapiens, UniProt P10275, T878A); test: Whole cell competitive binding assay with [3H]R1881; conditions: 30 µM
T4 sequence (P10275 1-920 T878A): T3 sequence (P10275 1-920 T878A)
Protocol: The androgen receptor competitive binding assays were performed with the synthetic androgen methyltrienolone [^3H]R1881. […] To determine the kinetics of [^3H]R1881 binding to the LNCaP AR cells were plated (2-3×10^5 cells/well) in 24 well multiwell dishes in steroid-free medium and allowed to attach. […] Following a 2 hour incubation period at 37° C., cells were washed twice with ice-cold DPBS and solubilized in DPBS containing 0.5% SDS and 20% glycerol. Extracts were removed and cell associated radioactivity counted in a scintillation counter. The data was analyzed, including Kd and Bmax determination, by nonlinear regression using Graphpad Prism software (GraphPad Software, Inc, San Diego, Calif.). When the concentration of [^3H]R1881 required to almost saturate AR in both cell lines was established (5.0 nM), the ability of the test compounds (1 nM-10 μM) to displace [^3H]R1881 (5.0 nM) from the receptors was determined as described above. The IC50 of each compound was determined by nonlinear regression with Graphpad Prism software (GraphPad Software, Inc, San Diego, Calif.).

[2] = each in duplicate, from dose-response curves
[3] = Homo sapiens, LNCaP, 168 h, LNCaP, MTT, 7 days, Table 4, read-out: GI50 of C-3 modified compounds
[4] = Homo sapiens, LNCaP, 168 h, LNCaP, MTT, 7 days, Table 2, read-out: GI50 of C-17 modified compounds

SMILES: C[C@]12CCC(=NO)C=C1CC[C@@H]1[C@@H]2CC[C@]2(C)C(n3cnc4ccccc43)=CC[C@@H]12 (mixture of isomers) [Compound 36, 3-((EZ)-Hydroximino)-17-(1H-Benzimidazol-1-yl)-androsta-4,16-diene]
IC50 (human CYP17A1 (CYP171dH); [2]): 93.7 to 258 µM and 258 µM
GI50 (LNCaP cells; [3]): 1.91 µM
down-regulation of full-length AR (full-length AR): significant down-regulation
down-regulation of truncated AR (AR-3) (AR-3 (also called AR-V7)): significant down-regulation

SMILES: C[C@]12CCC(=NOc3ccccc3)C=C1CC[C@@H]1[C@@H]2CC[C@]2(C)C(n3cnc4ccccc43)=CC[C@@H]12 (mixture of isomers) [Compound 37, 3-((EZ)—O-Phenyloxime)-17-(1H-Benzimidazol-1-yl)-androsta-4,16-diene]
solubility in ethanol or DMSO [1]: limited solubility in ethanol or DMSO

SMILES: C[C@]12CC[C@H](O)CC1=CC[C@@H]1[C@@H]2CC[C@]2(C)C(c3cccnc3)=CC[C@@H]12 [Abiraterone alcohol (3b), abiraterone alcohol, reference compound]
IC50 (human CYP17A1 (CYP171dH); [2]): 0.206 µM
GI50 (LNCaP cells; LNCaP, MTT, 7 days, Table 2, read-out: GI50 of C-17 modified compounds): 1.97 µM

IC50 (human CYP17A1 (CYP171dH); [2]): 0.752 µM
GI50 (LNCaP cells; [4]): 3.35 µM
SMILES: C[C@]12CC[C@H](O)CC1=CC[C@@H]1[C@@H]2CC[C@]2(C)C(n3cnc4ccccc43)=CC[C@@H]12 [Compound 5, 3β-Hydroxy-17-(1H-benzimidazol-1-yl)-androsta-5,16-diene, reference compound]
down-regulation of full-length AR (full-length AR): significant down-regulation

SMILES: C[C@]12CC[C@H](O)CC1=CC[C@@H]1[C@@H]2CC[C@]2(C)C(n3ccc4ccccc43)=CC[C@@H]12 [Compound 16, 3β-Hydroxy-17-(1H-indol-1-yl)-androsta-5,16-diene]
melting point: 142 to 145 °C
IC50 (human CYP17A1 (CYP171dH); [2]): 93.7 to 258 µM and 130 µM
GI50 (LNCaP cells; [4]): > 100 µM
AR down-regulation (ARD) activity, in words (AR): up-regulation of AR

SMILES: COc1ccc(NCC2=C(n3cnc4ccccc43)[C@@]3(C)CC[C@H]4[C@@H](CC=C5C[C@@H](O)CC[C@@]54C)[C@@H]3C2)cc1OC [Compound 31, 3β-Hydroxy-17-(1H-benzimidazol-1-yl)-16-(((3,4-dimethoxyphenyl)amino)methyl)-androsta-5,16-diene]
GI50 (LNCaP cells; Homo sapiens, LNCaP, 168 h, LNCaP cells, MTT, 7 days, Table 3, read-out: GI50 of C-16 modified compounds): > 100 µM
down-regulation of full-length AR (full-length AR): significant down-regulation
AR down-regulation (ARD) activity, in words (AR): significant loss of ARD
down-regulation of truncated AR (AR-3) (AR-3 (also called AR-V7)): significant down-regulation

SMILES: C[C@]12CC[C@H](OC(=O)c3ccccn3)CC1=CC[C@@H]1[C@@H]2CC[C@]2(C)C(n3cnc4ccccc43)=CC[C@@H]12 [Compound 41, 3β-(Pyridine-2-carboxylate)-17-(1H-benzimidazol-1-yl)-androsta-5,16-diene]
solubility in ethanol or DMSO [1]: limited solubilities in ethanol or DMSO

SMILES: C[C@]12CC[C@H](OC(=O)c3cccnc3)CC1=CC[C@@H]1[C@@H]2CC[C@]2(C)C(n3cnc4ccccc43)=CC[C@@H]12 [Compound 42, 3β-(Pyridine-3-carboxylate)-17-(1H-benzimidazol-1-yl)-androsta-5,16-diene]
solubility in ethanol or DMSO [1]: limited solubilities in ethanol or DMSO

SMILES: C[C@]12CC[C@H](OC(=O)c3ccncc3)CC1=CC[C@@H]1[C@@H]2CC[C@]2(C)C(n3cnc4ccccc43)=CC[C@@H]12 [Compound 43, 3β-(Pyridine-4-carboxylate)-17-(1H-benzimidazol-1-yl)-androsta-5,16-diene]
inhibition of [3H]R1881 binding / displacement (AR in LNCaP cells): ~53%
GI50 (LNCaP cells; read-out: GI50 of C-3 modified compounds): 2.57 µM

SMILES: Cc1nccn1C(=O)O[C@H]1CC[C@@]2(C)C(=CC[C@@H]3[C@@H]2CC[C@]2(C)C(n4cnc5ccccc54)=CC[C@@H]32)C1 [Compound 48, 3β-(2-Methyl-1H-imidazole-1-carboxylate)-17-(1H-benzimidazol-1-yl)-androsta-5,16-diene]
melting point: 186 to 187 °C
IC50 (human CYP17A1 (CYP171dH); [2]): 93.7 to 258 µM and 93.7 µM
GI50 (LNCaP cells; [3]): 5.34 µM
fold decrease in anti-proliferative activity (LNCaP cells; relative to 47): 6 fold

SMILES: C[C@]12CC[C@H](O)CC1=CC[C@@H]1[C@@H]2CC[C@]2(C)C(n3ccnc3)=CC[C@@H]12 [VN/85-1, 3β-hydroxy-17-(1H-imidazole-1-yl)androsta-5,16-diene, reference compound]
IC50 (human CYP17A1 (CYP171dH)): 0.125 µM
